Experimental data as given in US20140242174A1, “TREATING COUGH AND TUSSIVE ATTACKS” (VERONA PHARMA PLC, priority 2011, published 2014).

Tests used:
[1] = tested on: intractable, persistent cough due to interstitial lung disease; assay: Double blind, randomized, placebo-controlled, cross-over clinical study of inhaled carcainium chloride; assay type: in vivo, human
Excerpt: The aim of the clinical study was to determine the clinical effectiveness and safety of carcainium chloride by the inhaled route in hospital in-patients with intractable, persistent cough due to interstitial lung disease.
A double blind, randomized, placebo-controlled, cross-over study design was used to assess the effect of carcainium chloride as an anti-tussive in patients with interstitial lung disease.
The study was constructed as an adaptive contingency trial. In such a trial the outcome of each “test” of the drug against placebo is scored as either a positive or negative result (i.e. a binary decision, rather than a quantitative measure). Based on the outcome of this “test”, the trial either continues or halts. Patients attended two study visits where they were randomised to receive either: • carcainium chloride at a dose of 1.0 mg/kg on the first study visit followed by placebo (sodium chloride 0.9%) on the second visit; or • placebo (sodium chloride 0.9%) on the first visit followed by carcainium chloride at 1.0 mg/kg on the second visit.
Assessment of each patient was based on the following criteria. • 1 A physician's professional judgment of individual patient responses in a double blind crossover study with carcainium chloride and placebo in terms of anti-tussive action. • 2. Each patient's subjective comfort using a visual analogue scale (VAS), pre- and post-treatment. • 3. Each patient's coughs recorded in pre- and post-treatment periods for active and placebo treatments.
Carcainium chloride is a fine white dry powder and was provided in tightly closed vessels and stored in dark at room temperature upon receipt. The vehicle used for the dilution of carcainium chloride and for the placebo was 0.9% NaCl injection.
Patients were then administered the active or placebo sample, according to the above schedule, as an aerosol generated using an ultrasonic nebulizer (DeVilbiss Ultraneb).
In 8 out of 8 trials, the two physicians acting in concert successfully identified the active treatment carcainium chloride. The outcome of this assessment or “test” after each study treatment administered was either a success in which an ‘anti-tussive’ effect was observed (i.e. positive) or a failure which was defined as no change from baseline or pro-tussive effect (i.e. negative). The clinical investigator decided on a positive or negative outcome for each “test” in a blinded fashion. The statistical significance of this finding is <0.05 by contingency table, 0.05-0.01 by Chi square.
This was assessed on a 0-10 equal interval scale in the pre-drug and post-drug periods for active drug and placebo periods.
The frequency of cough (number per unit time) was recorded using a semi-automated system which records cough epochs (sounds) that are counted by a qualified technician.

irritant-induced cough = conditions: healthy human volunteers; Phase II; cited from earlier work
[2] = LC/MS/MS measurement of carcainium chloride concentrations in human plasma; assay type: in vivo; conditions: patients administered 1 mg/kg carcainium chloride by inhalation; K2EDTA plasma
Procedure: A liquid chromatography/tandem mass spectrometry (LC/MS/MS) assay method was developed, qualified, and implemented for the quantitation of carcainium chloride levels in K2EDTA human plasma samples collected from the human clinical study detailed above.
Initially, carcainium chloride was dissolved in deionized water to provide an initial standard or quality control (QC) stock solution at a concentration of 1000 μg/mL. Serial dilutions were carried out with deionized water to provide secondary stock solutions for subsequent preparation of plasma calibration standards or QC samples according to Table 1 below. The internal standard lidocaine was dissolved in deionized water to provide an initial stock solution at a concentration of 1000 μg/mL. The initial internal standard stock solution was then serially diluted with deionized water to provide a spiking stock solution concentration of 50 ng/mL.
A 10 μL aliquot of calibration standard stock solution or QC stock solution was transferred into individual 16×100 mm screw cap glass test tubes. For blank and blank with internal standard samples, 10 μL of deionized water was transferred instead. Human blank K2EDTA plasma (100 μL) was then added to each tube. A 50 μL aliquot of lidocaine internal standard spiking stock solution was transferred to each tube except for blank samples. A 50 μL aliquot of deionized water was added to blank samples. […]

C[N+](C)(CC(=O)Nc1ccccc1)CC(=O)Nc1ccccc1.[Cl-] [carcainium chloride, N,N-Bis-(phenylcarbamoylmethyl) dimethylammonium chloride]
Drug related adverse side effects in the human clinical study ([1]; 1 mg/kg inhaled): no significant drug related adverse side effects
Number of coughs recorded electronically (frequency of cough) ([1]; 1.0 mg/kg inhaled vs placebo, p=0.0007): statistically significant treatment effect
Patient comfort score (VAS, 0-10 scale), pre- and post-drug ([1]; 1.0 mg/kg inhaled vs placebo, p=0.0140 by sum of signed ranks): statistically significant improvement in patient well-being
Physician assessment: trials in which the two physicians successfully identified the active treatment (anti-tussive effect) ([1]; 1.0 mg/kg inhaled, ultrasonic nebulizer, vs placebo 0.9% NaCl, blinded, significance <0.05 by contingency table, 0.05-0.01 by Chi square): 8 out of 8
Anti-tussive activity, summary of the clinical study ([1]; preliminary analysis, all three measures statistically significant): marked anti-tussive activity
melting point: 177 to 178 °C
Ability to inhibit cough (increase of the amount of irritant required to induce cough) (irritant-induced cough): no statistically significant ability to inhibit cough
Concentration of carcainium chloride in plasma samples [2]: 1 to 50 ng/mL
